The supplement of paper PMC10307832

How the values were obtained:
Experiment in all cases: relative viability (nuclei count vs DMSO), 5 days (fraction); higher = more cells survive
DM3189 + OSI-027 = compound: C1CN(CCN1)C2=CC=C(C=C2)C3=CN4C(=C(C=N4)C5=CC=NC6=CC=CC=C56)N=C3 [DM3189] + COc1cccc2cc(-c3nc([C@H]4CC[C@H](C(=O)O)CC4)n4ncnc(N)c34)[nH]c12 [OSI-027] (partner 0.5 µM)
How it was run: (§1)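 Lung cancer cell lines were seeded in 1536-well plates and dosed by pin tool the next day, with either a single drug or a fixed anchor-drug dose combined with five library-drug doses (not always all listed) spaced in √10 steps. Five days later, one step fixed the cells and stained their nuclei (final 0.05% Triton X-100, 1% formaldehyde, 1 ug/ml Hoechst), and nuclei were counted on 4× images. Relative viability is the nuclei count in treated wells divided by the count in vehicle wells, and each value is the median of duplicate plates.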

DM3189 + Trametinib = compound: C1CN(CCN1)C2=CC=C(C=C2)C3=CN4C(=C(C=N4)C5=CC=NC6=CC=CC=C56)N=C3 [DM3189] + CC(=O)Nc1cccc(-n2c(=O)n(C3CC3)c(=O)c3c(Nc4ccc(I)cc4F)n(C)c(=O)c(C)c32)c1 [Trametinib] (partner 0.02 µM)
How it was run: as §1

DM3189 + Luminespib = compound: C1CN(CCN1)C2=CC=C(C=C2)C3=CN4C(=C(C=N4)C5=CC=NC6=CC=CC=C56)N=C3 [DM3189] + CCNC(=O)c1noc(-c2cc(C(C)C)c(O)cc2O)c1-c1ccc(CN2CCOCC2)cc1 [Luminespib] (partner 0.01 µM)
How it was run: as §1

DM3189 + Vorinostat = compound: C1CN(CCN1)C2=CC=C(C=C2)C3=CN4C(=C(C=N4)C5=CC=NC6=CC=CC=C56)N=C3 [DM3189] + O=C(CCCCCCC(=O)Nc1ccccc1)NO [Vorinostat] (partner 1 µM)
How it was run: as §1

DM3189 + AZD7762 = compound: C1CN(CCN1)C2=CC=C(C=C2)C3=CN4C(=C(C=N4)C5=CC=NC6=CC=CC=C56)N=C3 [DM3189] + NC(=O)Nc1cc(-c2cccc(F)c2)sc1C(=O)N[C@H]1CCCNC1 [AZD7762] (partner 0.2 µM)
How it was run: as §1

Row | Cell Line | relative viability (DM3189 + OSI-027; first compound 0.08 µM) | relative viability (DM3189 + OSI-027; first compound 0.253 µM) | relative viability (DM3189 + OSI-027; first compound 0.8 µM) | relative viability (DM3189 + OSI-027; first compound 2.53 µM) | relative viability (DM3189 + Trametinib; first compound 0.08 µM) | relative viability (DM3189 + Trametinib; first compound 0.253 µM) | relative viability (DM3189 + Trametinib; first compound 0.8 µM) | relative viability (DM3189 + Trametinib; first compound 2.53 µM) | relative viability (DM3189 + Luminespib; first compound 0.08 µM) | relative viability (DM3189 + Luminespib; first compound 0.253 µM) | relative viability (DM3189 + Luminespib; first compound 0.8 µM) | relative viability (DM3189 + Luminespib; first compound 2.53 µM) | relative viability (DM3189 + Vorinostat; first compound 0.08 µM) | relative viability (DM3189 + Vorinostat; first compound 0.253 µM) | relative viability (DM3189 + Vorinostat; first compound 0.8 µM) | relative viability (DM3189 + Vorinostat; first compound 2.53 µM) | relative viability (DM3189 + AZD7762; first compound 0.08 µM) | relative viability (DM3189 + AZD7762; first compound 0.253 µM) | relative viability (DM3189 + AZD7762; first compound 0.8 µM) | relative viability (DM3189 + AZD7762; first compound 2.53 µM)
1 | 201T | 0.88 | 0.763 | 0.512 | 0.747 | 0.729 | 0.743 | 0.728 | 0.734 | 1.16 | 1.01 | 1.14 | 0.941 | 1.03 | 0.899 | 0.943 | 1.12 | 0.717 | 0.639 | 0.611 | 0.537
2 | A-427 | 0.59 | 0.377 | 0.403 | 0.461 | 0.865 | 0.736 | 0.638 | 0.819 | 1.13 | 0.89 | 0.806 | 0.745 | 0.941 | 0.791 | 0.801 | 0.816 | 0.684 | 0.701 | 0.677 | 0.723
3 | ABC-1 | 0.603 | 0.353 | 0.492 | 0.497 | – | – | – | – | 0.516 | 0.489 | 0.531 | 0.278 | 1.53 | 0.9 | 1.04 | 0.907 | 0.914 | 0.679 | 0.742 | 1.06
4 | BEN | 0.389 | 0.323 | 0.315 | 0.309 | 0.982 | 1.01 | 1.11 | 1.21 | 0.387 | 0.555 | 0.516 | 0.382 | 0.609 | 0.547 | 0.541 | 0.636 | 0.76 | 0.646 | 0.702 | 0.738
5 | CAL-12T | 0.829 | 0.629 | 0.869 | 1 | 0.405 | 0.339 | 0.384 | 0.488 | 0.375 | 0.499 | 0.454 | 0.217 | 0.683 | 0.785 | 0.878 | 0.743 | 0.533 | 0.629 | 0.585 | 0.684
6 | COR-L23 | 0.887 | 0.715 | 0.576 | 0.625 | 0.707 | 0.507 | 0.529 | 0.549 | 1.12 | 0.658 | 0.562 | 0.521 | 0.454 | 0.537 | 0.387 | 0.37 | – | – | – | –
7 | COR-L 105 | 1.21 | 0.928 | 0.789 | 0.615 | 0.467 | 0.488 | 0.471 | 0.504 | 0.812 | 0.83 | 0.705 | 0.778 | 0.867 | 0.73 | 0.835 | 0.803 | – | – | – | –
8 | ChaGo-K-1 | 0.594 | 0.607 | 0.383 | 0.589 | 0.937 | 0.876 | 0.919 | 0.936 | 0.643 | 0.52 | 0.492 | 0.676 | 0.872 | 0.771 | 0.703 | 0.746 | 0.919 | 0.857 | 0.605 | 0.83
